In brackets after ≈: the same amount, converted by molar mass. Activity calls are given as the source filed them. No cut-off for these calls is given here.
Experiments:
Assay type in all cases: functional, organism-based
[1] = system: Human betaherpesvirus 5; test: Tested for antiviral activity against HCMV in AD169 cell line; settings: Human betaherpesvirus 5, AD169
[2] = system: Human betaherpesvirus 5; test: Tested for antiviral activity against HCMV in Davis cell line; settings: Human betaherpesvirus 5, Davis
[3] = system: Human alphaherpesvirus 1; test: Tested for antiviral activity against HSV-1 in CCL 81 cells
[4] = system: Human immunodeficiency virus 1; test: Tested for antiviral activity against HIV-1 in MT-4 cells; settings: MT4
[5] = system: Human betaherpesvirus 5; test: Tested for antiviral activity against HCMV in […] cells
[6] = system: Human alphaherpesvirus 2; test: Tested for antiviral activity against HSV-2 in CCL 81 cells

SMILES	EC50 [1]	EC50 [2]	Activity [3]	Activity [4]	Activity [5]	Activity [6]
CNc1ncnc2c1ncn2[C@H]1S[C@H](CO)C[C@H]1N=[N+]=[N-]	19.1 µg/mL (≈ 62.5 µM)	25.8 µg/mL (≈ 84.2 µM)				
Cc1cn([C@@H]2S[C@@H](CO)C[C@@H]2N=[N+]=[N-])c(=O)[nH]c1=O			inactive	inactive	Significant activity	inactive
[N-]=[N+]=N[C@H]1C[C@H](CO)S[C@H]1n1cnc2c(N)ncnc21			inactive	inactive	Significant activity	inactive
CC(C)(C)[Si](OC[C@H]1C[C@H](N=[N+]=[N-])[C@@H](n2ccc(NC(=O)c3ccccc3)nc2=O)S1)(c1ccccc1)c1ccccc1			inactive	inactive	Significant activity	inactive
[N-]=[N+]=N[C@H]1C[C@H](CO)S[C@@H]1n1cnc2c(Cl)ncnc21			inactive	inactive	Significant activity	inactive
[N-]=[N+]=N[C@@H]1C[C@@H](CO)S[C@H]1n1cnc2c(Cl)ncnc21			inactive	inactive	Significant activity	inactive
CNc1ncnc2c1ncn2[C@@H]1S[C@@H](CO)C[C@@H]1N=[N+]=[N-]			inactive	inactive	Significant activity	inactive
[N-]=[N+]=N[C@H]1C[C@H](CO)S[C@H]1n1cnc2c(O)ncnc21			inactive	inactive	Significant activity	inactive
CNc1ncnc2c1ncn2[C@@H]1S[C@H](CO)C[C@H]1N=[N+]=[N-]	26.1 µg/mL (≈ 85.2 µM)	90.2 µg/mL (≈ 294 µM)				
[N-]=[N+]=N[C@H]1C[C@H](CO)S[C@H]1n1ccc(N)nc1=O			inactive	inactive	Significant activity	inactive
[N-]=[N+]=N[C@H]1C[C@H](COC(=O)c2ccccc2)S[C@H]1n1ccc(=O)n(C(=O)c2ccccc2)c1=O			inactive	inactive	Significant activity	inactive
[N-]=[N+]=N[C@@H]1C[C@@H](CO)S[C@@H]1n1cnc2c(N)ncnc21			inactive	inactive	Significant activity	inactive
Nc1nc2c(ncn2COC(CO)CO)c(=O)[nH]1 [GANCICLOVIR]	0.98 µg/mL (≈ 3.84 µM)	4.07 µg/mL (≈ 15.9 µM)				
[N-]=[N+]=N[C@H]1C[C@H](CO)S[C@H]1n1cnc2c(Cl)ncnc21			inactive	inactive	Significant activity	inactive
CC(C)(C)[Si](OC[C@H]1C[C@H](N=[N+]=[N-])[C@H](n2ccc(NC(=O)c3ccccc3)nc2=O)S1)(c1ccccc1)c1ccccc1			inactive	inactive	Significant activity	inactive
[N-]=[N+]=N[C@H]1C[C@H](COC(=O)c2ccccc2)S[C@@H]1n1ccc(=O)n(C(=O)c2ccccc2)c1=O			inactive	inactive	Significant activity	inactive
[N-]=[N+]=N[C@H]1C[C@H](CO)S[C@H]1n1ccc(=O)[nH]c1=O			inactive	inactive	Significant activity	inactive
[N-]=[N+]=N[C@H]1C[C@H](CO)S[C@@H]1n1cnc2c(O)ncnc21			inactive	inactive	Significant activity	inactive
CNc1ncnc2c1ncn2[C@H]1S[C@@H](CO)C[C@@H]1N=[N+]=[N-]			inactive	inactive	Significant activity	inactive
[N-]=[N+]=N[C@@H]1C[C@@H](CO)S[C@H]1n1cnc2c(N)ncnc21			inactive	inactive	Significant activity	inactive
CC(=O)OC1S[C@@H](CO[Si](c2ccccc2)(c2ccccc2)C(C)(C)C)C[C@@H]1N=[N+]=[N-] (stereo partly drawn)			inactive	inactive	inactive	inactive
Cc1cn([C@H]2S[C@@H](CO)C[C@@H]2N=[N+]=[N-])c(=O)[nH]c1=O			inactive	inactive	Significant activity	inactive
[N-]=[N+]=N[C@H]1C[C@H](CO)S[C@@H]1n1ccc(=O)[nH]c1=O			inactive	inactive	Significant activity	inactive
[N-]=[N+]=N[C@@H]1C[C@@H](CO)S[C@@H]1n1cnc2c(Cl)ncnc21			inactive	inactive	Significant activity	inactive
[N-]=[N+]=N[C@H]1C[C@H](CO)S[C@@H]1n1ccc(N)nc1=O			inactive	inactive	Significant activity	inactive
[N-]=[N+]=N[C@H]1C[C@H](CO)S[C@@H]1n1cnc2c(N)ncnc21			inactive	inactive	Significant activity	inactive
